Where a name gives a salt, the structure may show the parent alone.
Target: HIF PHD2 (Homo sapiens, UniProt Q9GZT9)
Assay: PHD2 inhibition assay (TR-FRET, VCB-Eu detection of hydroxylated P564-HIF1α peptide)
Format: biochemical
Conditions: 2 nM PHD2, 100 nM P564-HIF1α peptide, 0.25 μM 2-oxoglutarate
How it was run: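 Human PHD2 (2 nM final) preincubated 1 h at room temperature with compound and 100 μM FeCl2 in pH 6 MES buffer, 5% DMSO final. Reaction with 100 nM biotinylated P564-HIF1α peptide, 2 mM ascorbate and 0.25 μM 2-oxoglutarate for 1 h, stopped with succinate. Hydroxylation read by TR-FRET (VCB-Eu/streptavidin-APC, 655/615 nm); IC50 from 4-parameter fit of percent of control.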

HIF PHD2, sequence (Q9GZT9 whole entry): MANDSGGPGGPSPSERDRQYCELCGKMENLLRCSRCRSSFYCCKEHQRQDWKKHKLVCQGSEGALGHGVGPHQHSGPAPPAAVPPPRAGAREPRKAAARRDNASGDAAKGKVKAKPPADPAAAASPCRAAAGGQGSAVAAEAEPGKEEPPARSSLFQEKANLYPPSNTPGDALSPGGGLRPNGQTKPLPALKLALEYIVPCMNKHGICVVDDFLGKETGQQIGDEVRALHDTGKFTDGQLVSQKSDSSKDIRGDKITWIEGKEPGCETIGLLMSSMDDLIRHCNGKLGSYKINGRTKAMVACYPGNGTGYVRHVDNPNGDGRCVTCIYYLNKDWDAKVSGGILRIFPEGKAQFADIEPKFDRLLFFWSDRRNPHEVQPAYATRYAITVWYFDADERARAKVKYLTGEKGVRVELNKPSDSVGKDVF

SMILES	IC50 [nM]
CN1CCC(c2cc3c(O)c(C(=O)NCC(=O)O)c(=O)n(C)c3cn2)CC1 [Example 117, 2-(4-Hydroxy-1-methyl-6-(1-methylpiperidin-4-yl)-2-oxo-1,2-dihydro-1,7-naphthyridine-3-carboxamido)acetic acid, Trifluoroacetic acid salt]	< 50
CC(=O)N1CC=C(c2cc3c(O)c(C(=O)NCC(=O)O)c(=O)n(C)c3cn2)CC1 [Example 118, 2-(6-(1-Acetyl-1,2,3,6-tetrahydropyridin-4-yl)-4-hydroxy-1-methyl-2-oxo-1,2-dihydro-1,7-naphthyridine-3-carboxamido)acetic acid, Trifluoroacetic acid salt]	< 50
CC(=O)N1CCC(c2cc3c(O)c(C(=O)NCC(=O)O)c(=O)n(C)c3cn2)CC1 [Example 119, 2-(6-(1-Acetylpiperidin-4-yl)-4-hydroxy-1-methyl-2-oxo-1,2-dihydro-1,7-naphthyridine-3-carboxamido)acetic acid, Trifluoroacetic acid salt]	< 50
Cn1c(=O)c(C(=O)NCC(=O)O)c(O)c2cc(N3CCOCC3)ncc21 [Example 120, 2-(4-Hydroxy-1-methyl-6-morpholino-2-oxo-1,2-dihydro-1,7-naphthyridine-3-carboxamido)acetic acid, Trifluoroacetic acid salt]	< 50
Cn1c(=O)c(C(=O)NCC(=O)O)c(O)c2cc(N3CCCCC3)ncc21 [Example 121, 2-(4-Hydroxy-1-methyl-2-oxo-6-(piperidin-1-yl)-1,2-dihydro-1,7-naphthyridine-3-carboxamido)acetic acid, Trifluoroacetic acid salt]	50 to 100
CN1CCN(c2cc3c(O)c(C(=O)NCC(=O)O)c(=O)n(C)c3cn2)CC1 [Example 122, 2-(4-Hydroxy-1-methyl-6-(4-methylpiperazin-1-yl)-2-oxo-1,2-dihydro-1,7-naphthyridine-3-carboxamido)acetic acid, Trifluoroacetic acid salt]	100 to 500
Cn1c(=O)c(C(=O)NCC(=O)O)c(O)c2cc(Cl)[n+]([O-])cc21 [Example 123, 2-(6-Chloro-4-hydroxy-1-methyl-2-oxo-1,2-dihydro-1,7-naphthyridine-3-carboxamido)acetic acid, N-oxide]	< 50
Cn1c(=O)c(C(=O)NCC(=O)O)c(O)c2cc(-c3ccccc3)nc(C(F)(F)F)c21 [Example 124, 2-(4-Hydroxy-1-methyl-2-oxo-6-phenyl-8-(trifluoromethyl)-1,2-dihydro-1,7-naphthyridine-3-carboxamido)acetic acid]	100 to 500
Cc1ccccc1-c1cc2c(O)c(C(=O)NCC(=O)O)c(=O)n(C)c2c(C(F)(F)F)n1 [Example 125, N-((4-Hydroxy-1-methyl-6-(2-methylphenyl)-2-oxo-8-(trifluoromethyl)-1,2-dihydro-1,7-naphthyridin-3-yl)carbonyl)glycine]	< 50
Cn1c(=O)c(C(=O)NCC(=O)O)c(O)c2ccnc(Cl)c21 [Example 126, 2-(8-Chloro-4-hydroxy-1-methyl-2-oxo-1,2-dihydro-1,7-naphthyridine-3-carboxamido)acetic acid]	50 to 100
Cn1c(=O)c(C(=O)NCC(=O)O)c(O)c2ccnc(C(F)(F)F)c21 [Example 127, 2-(4-Hydroxy-1-methyl-2-oxo-8-(trifluoromethyl)-1,2-dihydro-1,7-naphthyridine-3-carboxamido)acetic acid]	< 50
Cn1c(=O)c(C(=O)NCC(=O)O)c(O)c2ccnc(-c3ccccc3)c21 [Example 128, 2-(4-Hydroxy-1-methyl-2-oxo-8-phenyl-1,2-dihydro-1,7-naphthyridine-3-carboxamido)acetic acid]	< 50
Cn1c(=O)c(C(=O)NCC(=O)O)c(O)c2c(NCC(=O)O)nccc21 [Example 129, 2-{4-Hydroxy-1-methyl-2-oxo-3-[(carboxymethyl)carbamoyl]-1,2-dihydro-1,6-naphthyridin-5-ylamino}acetic acid, Trifluoroacetic acid salt]	< 50
